Key:
COX-2 = target: T1, COX-2 (Homo sapiens, UniProt P35354); settings: specificity for COX-2 over COX-1, background statement; cited from earlier work
T1 sequence (P35354 18-604): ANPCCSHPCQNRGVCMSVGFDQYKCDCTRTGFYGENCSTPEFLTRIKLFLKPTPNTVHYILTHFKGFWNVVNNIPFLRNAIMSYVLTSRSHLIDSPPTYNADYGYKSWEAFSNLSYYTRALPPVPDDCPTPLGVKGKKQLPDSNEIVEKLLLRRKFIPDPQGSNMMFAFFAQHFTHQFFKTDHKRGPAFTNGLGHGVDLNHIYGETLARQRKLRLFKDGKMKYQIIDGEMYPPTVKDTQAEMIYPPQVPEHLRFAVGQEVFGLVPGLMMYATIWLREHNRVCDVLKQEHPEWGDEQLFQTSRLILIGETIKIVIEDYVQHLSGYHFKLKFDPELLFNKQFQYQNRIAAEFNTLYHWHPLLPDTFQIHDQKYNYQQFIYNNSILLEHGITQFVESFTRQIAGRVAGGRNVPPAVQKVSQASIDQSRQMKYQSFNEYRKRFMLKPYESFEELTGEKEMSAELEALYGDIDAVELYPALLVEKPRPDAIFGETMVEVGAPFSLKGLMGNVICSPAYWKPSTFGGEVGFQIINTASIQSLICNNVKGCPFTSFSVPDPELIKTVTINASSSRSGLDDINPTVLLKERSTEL

COX-1 enzyme (ovine) = target: T2, COX-1 enzyme (ovine) (Ovis aries, UniProt P05979); test: COX-1 enzyme inhibition (COX-1 synthesis of PGE2); type: biochemical
T2 construct: purchased Cayman Chemical 60100
T2 sequence (P05979 25-600): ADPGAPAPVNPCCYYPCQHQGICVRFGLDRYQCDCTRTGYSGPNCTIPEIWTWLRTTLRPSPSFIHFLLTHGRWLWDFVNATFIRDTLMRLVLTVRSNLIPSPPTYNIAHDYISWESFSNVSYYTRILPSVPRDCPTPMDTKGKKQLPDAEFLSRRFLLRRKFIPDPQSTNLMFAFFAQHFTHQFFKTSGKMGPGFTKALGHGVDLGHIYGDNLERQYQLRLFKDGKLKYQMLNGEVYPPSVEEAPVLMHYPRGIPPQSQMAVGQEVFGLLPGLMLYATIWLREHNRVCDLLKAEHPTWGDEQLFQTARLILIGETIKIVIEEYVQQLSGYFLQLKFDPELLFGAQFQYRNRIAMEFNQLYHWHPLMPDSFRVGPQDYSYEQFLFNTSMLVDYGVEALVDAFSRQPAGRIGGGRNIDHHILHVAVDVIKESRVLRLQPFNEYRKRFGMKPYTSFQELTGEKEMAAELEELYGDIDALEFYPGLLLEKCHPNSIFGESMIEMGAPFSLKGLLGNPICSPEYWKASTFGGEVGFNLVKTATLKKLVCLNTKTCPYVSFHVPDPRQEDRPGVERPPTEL
Method: Determination of COX-1 Enzyme Inhibition by Hops Extract—The ability of a test material to inhibit COX-1 synthesis of PGE2 was determined essentially as described by Noreen, Y., et al. (J. Nat. Prod. 61, 2-7, 1998). […]

Compound	reported COX-2 specificity (COX-2)	IC50 (COX-1 enzyme (ovine)) [µM]
CC(=O)Oc1ccccc1C(=O)O [aspirin]	0.6	
COc1cc(/C=C/C(=O)CC(=O)/C=C/c2ccc(O)c(OC)c2)ccc1O [curcumin]		27.1

Source: patent publication US20090274778A1 (priority 2004, published 2009)
